Reference: patent US20070275968A1, “Substituted Biphenyl Derivative” (priority 2004, published 2007)

Row | melting point | SMILES
1 | 120 to 122 °C | Cc1cccc(-c2[nH]c(C(C)C)nc2-c2cccc(-c3ccc(OC(F)(F)F)cc3)c2)n1 [Example 10, 2-{2-Isopropyl-4-[4′-(trifluoromethoxy)-1,1′-biphenyl-3-yl]-1H-imidazol-5-yl}-6-methylpyridine]
2 | 146 to 148 °C | Cc1cccc(-c2[nH]c(C(C)C)nc2-c2cccc(-c3ccc(NC(=O)NN4CCOCC4)cc3)c2)n1 [Example 67, N-{3′-[2-Isopropyl-5-(6-methylpyridin-2-yl)-1H-imidazol-4-yl]-1,1′-biphenyl-4-yl}-N′-morpholin-4-ylurea]
3 | 84 to 86 °C | Cc1cccc(-c2[nH]c(C(C)C)nc2-c2cccc(-c3ccncc3)c2)n1 [Example 12, 2-[2-Isopropyl-4-(3-pyridin-4-ylphenyl)-1H-imidazol-5-yl]-6-methylpyridine]
4 | 107 to 117 °C | Cc1cccc(-c2[nH]c(C(C)C)nc2-c2cccc(-c3ccc(N)cc3)c2)n1 [Example 28, 2-[2-Isopropyl-4-(4′-amino-1,1′-biphenyl-3-yl)-1H-imidazol-5-yl]-6-methylpyridine]
5 | 135 to 145 °C | Cc1cccc(-c2[nH]c(C(C)C)nc2-c2cccc(-c3ccc(NS(=O)(=O)C4CC4)cc3)c2)n1 [Example 31, N-{3′-[2-Isopropyl-5-(6-methylpyridin-2-yl)-1H-imidazol-4-yl]-1,1′-biphenyl-4-yl}cyclopropylsulfonamide]
6 | 140 to 145 °C | CC(=O)Nc1ccc(-c2cccc(-c3nc(C(C)C)[nH]c3-c3cccc(C)n3)c2)cc1 [Example 32, N-{3′-[2-Isopropyl-5-(6-methylpyridin-2-yl)-1H-imidazol-4-yl]-1,1′-biphenyl-4-yl}acetamide]
7 | 113 to 123 °C (dec.) | Cc1cccc(-c2[nH]c(C(C)C)nc2-c2cccc(-c3ccc(CN)cc3)c2)n1 [Example 29, 1-{3′-[2-Isopropyl-5-(6-methylpyridin-2-yl)-1H-imidazol-4-yl]-1,1′-biphenyl-4-yl}methanamine]
8 | 97 to 100 °C | Cc1cccc(-c2[nH]c(C(C)C)nc2-c2cccc(-c3cccc(S(C)(=O)=O)c3)c2)n1 [Example 18, 2-{2-Isopropyl-4-[3′-(methylsulfonyl)-1,1′-biphenyl-3-yl]-1H-imidazol-5-yl}-6-methylpyridine]
9 | 80 to 82 °C | CSc1ccc(-c2cccc(-c3nc(C(C)C)[nH]c3-c3cccc(C)n3)c2)cc1 [Example 16, 2-{2-Isopropyl-4-[4′-(methylthio)-1,1′-biphenyl-3-yl]-1H-imidazol-5-yl}-6-methylpyridine]
10 | 83 to 85 °C | Cc1cccc(-c2[nH]c(C(C)C)nc2-c2cccc(-c3ccc(F)cc3)c2)n1 [Example 8, 2-[4-(4′-Fluoro-1,1′-biphenyl-3-yl)-2-isopropyl-1H-imidazol-5-yl]-6-methylpyridine]
11 | 140 to 142 °C | Cc1cccc(-c2[nH]c(C(C)C)nc2-c2cccc(-c3cccc(F)c3)c2)n1 [Example 7, 2-[4-(3′-Fluoro-1,1′-biphenyl-3-yl)-2-isopropyl-1H-imidazol-5-yl]-6-methylpyridine]
12 | 140 °C | Cc1cccc(-c2[nH]c(C(C)C)nc2-c2cccc(-c3ccc(C(=O)NC4CCOCC4)cc3)c2)n1 [Example 44, N-(Tetrahydropyran-4-yl)-4-{3-[2-isopropyl-5-(6-methylpyridin-2-yl)-1H-imidazol-4-yl]-phenyl}benzamide]

More lines, now with the values behind:

Row | SMILES | melting point
13 | Cc1cccc(-c2[nH]c(CC(C)C)nc2-c2cccc(-c3ccc(C(=O)NC4CCOCC4)cc3)c2)n1 [Example 45, N-(Tetrahydropyran-4-yl)-4-{3-[2-isobutyl-5-(6-methylpyridin-2-yl)-1H-imidazol-4-yl]phenyl}benzamide] | 126 to 129 °C
14 | Cc1cccc(-c2[nH]c(C(C)C)nc2-c2cccc(-c3ccc4c(c3)C=CS4(=O)=O)c2)n1 [Example 85, 2-{4-[3-(1,1-Dioxido-1-benzothien-5-yl)phenyl]-2-isopropyl-1H-imidazol-5-yl}-6-methylpyridine] | 137 to 138 °C
15 | Cc1cccc(-c2[nH]c(C(C)C)nc2-c2ccc(F)c(-c3ccc[nH]3)c2)n1 [Example 93, 2-{4-[4-Fluoro-3-(1H-pyrrol-2-yl)phenyl]-2-isopropyl-1H-imidazol-5-yl}-6-methylpyridine] | 103 to 106 °C
16 | Cc1cccc(-c2n[nH]cc2-c2ccc(F)c(-c3ccc(S(N)(=O)=O)s3)c2)n1 [Example 143, 5-{2-Fluoro-5-[3-(6-methylpyridin-2-yl)-1H-pyrazol-4-yl]phenyl}thiophene-2-sulfonamide] | 125 °C
17 | Cc1cccc(-c2n[nH]cc2-c2ccc(F)c(-c3ccc(S(=O)(=O)C(F)(F)F)cc3)c2)n1 [Example 168, 2-(4-{6-Fluoro-4′-[(trifluoromethyl)sulfonyl]-1,1′-biphenyl-3-yl}-1H-pyrazol-3-yl)-6-methylpyridine] | 81 to 84 °C
18 | Cc1cccc(-c2n[nH]cc2-c2ccc(F)c(-c3cn4c(n3)[S+]([O-])CC4)c2)n1 (centres unmarked) [Example 211, 6-{2-Fluoro-5-[3-(6-methylpyridin-2-yl)-1H-pyrazol-4-yl]phenyl}-2,3-dihydroimidazo[2,1-b][1,3]thiazole 1-oxide] | 140 to 144 °C
19 | Cc1cccc(-c2nn(C)cc2-c2ccc(F)c(-c3ccc(S(C)(=O)=O)cc3)c2)n1 [Example 199, 2-{4-[6-Fluoro-4′-(methylsulfonyl)-1,1′-biphenyl-3-yl]-1-methyl-1H-pyrazol-3-yl}-6-methylpyridine] | 66 to 67 °C
20 | Cc1cccc(-c2[nH]c(C(C)C)nc2-c2cccc(-c3cccnc3)c2)n1 [Example 11, 2-[2-Isopropyl-4-(3-pyridin-3-ylphenyl)-1H-imidazol-5-yl]-6-methylpyridine] | 74 to 77 °C
21 | Cc1cccc(-c2[nH]c(C(C)C)nc2-c2ccc(F)c(-c3ccc(NC(=O)NC4CCN(C)CC4)cc3)c2)n1 [Example 95, N-{2′-Fluoro-5′-[2-isopropyl-5-(6-methylpyridin-2-yl)-1H-imidazol-4-yl]-1,1′-biphenyl-4-yl}-N′-(1-methylpiperidin-4-yl)urea] | 145 °C
22 | Cc1cccc(-c2[nH]c(C(C)C)nc2-c2cccc(-c3ccc(NS(=O)(=O)C4CC4)cc3F)c2)n1 [Example 74, N-{2-Fluoro-3′-[2-isopropyl-5-(6-methylpyridin-2-yl)-1H-imidazol-4-yl]-1,1′-biphenyl-4-yl}cyclopropanesulfonamide] | 124 to 128 °C
23 | Cc1cccc(-c2[nH]c(C(C)C)nc2-c2cccc(-c3cccs3)c2)n1 [Example 20, 2-[2-Isopropyl-4-(3-thien-2-ylphenyl)-1H-imidazol-5-yl]-6-methylpyridine] | 73 to 76 °C
24 | Cc1cccc(-c2[nH]c(C(C)C)nc2-c2ccc(F)c(-c3ccc(C(=O)O)cc3)c2)n1 [Example 101, 2′-Fluoro-5′-[2-isopropyl-5-(6-methylpyridin-2-yl)-1H-imidazol-4-yl]-1,1′-biphenyl-4-carboxylic acid] | 160 to 161 °C
25 | Cc1cccc(-c2[nH]c(C(C)C)nc2-c2cccc(-c3ccc(C)[nH]3)c2)n1 [Example 69, 2-{2-Isopropyl-4-[3-(5-methyl-1H-pyrrol-2-yl)phenyl]-1H-imidazol-5-yl}-6-methylpyridine] | 128 to 130 °C
26 | Cc1cccc(-c2[nH]c(C(C)C)nc2-c2cccc(-c3ccccn3)c2)n1 [Example 43, 2-[2-Isopropyl-4-(3-pyridin-2-ylphenyl)-1H-imidazol-5-yl]-6-methylpyridine] | 97 to 100 °C
27 | Cc1cccc(-c2[nH]c(C(C)C)nc2-c2ccc(F)c(-c3ccc(N4CCOCC4)cc3)c2)n1 [Example 100, 4-{2′-Fluoro-5′-[2-isopropyl-5-(6-methylpyridin-2-yl)-1H-imidazol-4-yl]-1,1′-biphenyl-4-yl}morpholine] | 109 to 111 °C
28 | Cc1cccc(-c2n[nH]cc2-c2ccc(F)c(-c3ccc(C(C)O)cn3)c2)n1 (centres unmarked) [Example 165, 1-(6-{2-Fluoro-5-[3-(6-methylpyridin-2-yl)-1H-pyrazol-4-yl]phenyl}pyridin-3-yl)ethanol] | 149 to 151 °C
29 | Cc1cccc(-c2nc(C(C)C)[nH]c2-c2ccc(F)c(-c3ccco3)c2)n1 [Example 113, 2-{5-[4-Fluoro-3-(2-furyl)phenyl]-2-isopropyl-1H-imidazol-4-yl}-6-methylpyridine] | 78 to 90 °C
30 | Cc1cccc(-c2n[nH]cc2-c2ccc(F)c(-c3ccc(SCCO)cc3)c2)n1 [Example 169, 2-({2′-Fluoro-5′-[3-(6-methylpyridin-2-yl)-1H-pyrazol-4-yl]-1,1′-biphenyl-4-yl}thio)ethanol] | 150 to 152 °C
31 | Cc1cccc(-c2n[nH]cc2-c2ccc(F)c(-c3ccc(S(=O)(=O)C(F)F)cc3)c2)n1 [Example 171, 2-(4-{4′-[(Difluoromethyl)sulfonyl]-6-fluoro-1,1′-biphenyl-3-yl}-1H-pyrazol-3-yl)-6-methylpyridine] | 80 to 82 °C
32 | Cc1cccc(-c2[nH]c(C(C)C)nc2-c2ccc(F)c(-c3ccc(NC(=O)NN4CCN(C)CC4)cc3)c2)n1 [Example 92, N-{2′-Fluoro-5′-[2-isopropyl-5-(6-methylpyridin-2-yl)-1H-imidazol-4-yl]-1,1′-biphenyl-4-yl}-N′-(4-methylpiperazin-1-yl)urea] | 145 °C
33 | Cc1cccc(-c2n[nH]cc2-c2ccc(F)c(-c3ccc(S(C)(=O)=O)cc3)c2)n1 [Example 191, 2-{4-[6-Fluoro-4′-(methylsulfonyl)-1,1′-biphenyl-3-yl]-1H-pyrazol-3-yl}-6-methylpyridine] | 100 to 102 °C
34 | Cc1cccc(-c2[nH]c(C(C)C)nc2-c2ccc(F)c(-c3nc[nH]n3)c2)n1 [Example 133, 2-{4-[4-Fluoro-3-(1H-1,2,4-triazol-3-yl)phenyl]-2-isopropyl-1H-imidazol-5-yl}-6-methylpyridine] | 184 to 186 °C
35 | COC(C)(C)c1ccc(-c2cc(-c3c[nH]nc3-c3cccc(C)n3)ccc2F)nc1 [Example 173, 2-{2-Fluoro-5-[3-(6-methylpyridin-2-yl)-1H-pyrazol-4-yl]phenyl}-5-(1-methoxy-1-methylethyl)pyridine] | 168 to 169 °C
